# Where two headings read alike, the source gives them in different places.
# Legend:
# [1] = test system: S. aureus ATCC 29213; assay: MIC, twofold microdilution, standard strain; type: cell-based; conditions: Staphylococcus aureus, ATCC29213; 18 h of treatment; read-out: MIC S. aureus ATCC 29213
# [2] = test system: S. epidermidis ATCC 12228; assay: MIC, twofold microdilution, standard strain; type: cell-based; conditions: Staphylococcus epidermidis, read-out: MIC S. epidermidis ATCC 12228
# [3] = test system: HaCaT cells; assay: MTT assay, HaCaT normal cells; type: cell-based; conditions: human immortal keratinocyte cell line, 72 h, mean ± SD
# [4] = test system: SW620 cells; assay: MTT assay, SW620; type: cell-based, human; conditions: for IC50: human metastatic colon cancer, 72 h, MTT, mean ± SD; for SI SW620: SI = IC50 for normal cell line (HaCaT)/IC50 cancer cell line
# [5] = test system: PC3 cells; assay: MTT assay, PC3; type: cell-based, human; conditions: for SI PC3: SI = IC50 for normal cell line (HaCaT)/IC50 cancer cell line
# [6] = test system: S. epidermidis KR 4358/2 840/19; assay: MIC, clinical S. epidermidis strain; type: cell-based; conditions: Staphylococcus epidermidis, read-out: MIC KR 4358/2 840/19
# [7] = test system: S. epidermidis KR 4243 829/19; assay: MIC, clinical S. epidermidis strain; type: cell-based; conditions: Staphylococcus epidermidis, KR4243829/19, quinolone-susceptible, 18 h of treatment
# [8] = test system: M. tuberculosis Spec. 192 (Sensitive to Tuberculostatics); assay: MABA (microplate Alamar blue assay) MIC; type: cell-based; conditions: Mycobacterium tuberculosis, 336 h, read-out: MIC M. tuberculosis Spec. 192 (Sensitive to Tuberculostatics)
# [9] = test system: S. epidermidis T 5501 851/19; assay: MIC, clinical S. epidermidis strain; type: cell-based; conditions: Staphylococcus epidermidis, T5501851/19, read-out: MIC T 5501 851/19, quinolone-susceptible, 18 h of treatment
# [10] = test system: M. tuberculosis H37Rv; assay: MABA (microplate Alamar blue assay) MIC; type: cell-based; conditions: Mycobacterium tuberculosis, 336 h, read-out: MIC M. tuberculosis H37Rv
# [11] = test system: S. epidermidis KR 4047 825/19; assay: MIC, clinical S. epidermidis strain; type: cell-based; conditions: Staphylococcus epidermidis, KR4047825/19, quinolone-resistant, 18 h of treatment
# [12] = test system: E. coli ATCC 25922; assay: MIC, twofold microdilution, standard strain; type: cell-based, Escherichia coli; conditions: Escherichia coli, ATCC25922; 18 h of treatment; read-out: MIC E. coli ATCC 25922
# [13] = test system: S. epidermidis T 5253 845/19; assay: MIC, clinical S. epidermidis strain; type: cell-based; conditions: Staphylococcus epidermidis, T5253845/19, quinolone-resistant, 18 h of treatment
# [14] = test system: P. aeruginosa ATCC 27853; assay: MIC, twofold microdilution, standard strain; type: cell-based; conditions: Pseudomonas aeruginosa, read-out: MIC P. aeruginosa ATCC 27853
# [15] = test system: S. epidermidis KR 4313 834/19; assay: MIC, clinical S. epidermidis strain; type: cell-based; conditions: Staphylococcus epidermidis, KR4313834/19, quinolone-susceptible, 18 h of treatment
# [16] = test system: S. aureus ATCC 25923; assay: MIC, twofold microdilution, standard strain; type: cell-based; conditions: Staphylococcus aureus, ATCC25923; 18 h of treatment; read-out: MIC S. aureus ATCC 25923
# [17] = test system: S. epidermidis T 5399 848/19; assay: MIC, clinical S. epidermidis strain; type: cell-based; conditions: Staphylococcus epidermidis, T5399848/19, quinolone-susceptible, 18 h of treatment
# [18] = test system: SW480 cells; assay: MTT assay, SW480; type: cell-based, human; conditions: for IC50: human primary colon cancer, 72 h, MTT, mean ± SD; for SI SW480: SI = IC50 for normal cell line (HaCaT)/IC50 cancer cell line
# [19] = test system: S. epidermidis ATCC 35984; assay: MIC, twofold microdilution, standard strain; type: cell-based; conditions: Staphylococcus epidermidis, ATCC35984; 18 h of treatment; read-out: MIC S. epidermidis ATCC 35984
# [20] = test system: S. aureus NCTC 4163; assay: MIC, twofold microdilution, standard strain; type: cell-based; conditions: Staphylococcus aureus, NCTC4163; 18 h of treatment; read-out: MIC S. aureus NCTC 4163
# [21] = test system: S. aureus ATCC 6538; assay: MIC, twofold microdilution, standard strain; type: cell-based; conditions: Staphylococcus aureus, ATCC6538; 18 h of treatment; read-out: MIC S. aureus ATCC 6538
# [22] = test system: SW480, SW620, and PC3 cancer cell lines; assay: MTT assay, cancer cell lines as a group; type: cell-based, human; conditions: Homo sapiens, 72 h, all three cancer cell lines (SW480, SW620, PC3), read-out: IC50 against all tested cancer cell lines
# [23] = test system: standard staphylococci (S. aureus, S. epidermidis); assay: MIC, standard Gram-positive strains as a group; type: cell-based; conditions: Staphylococcus aureus; range over standard Gram-positive strains; read-out: MIC against standard staphylococci
# [24] = molecular target: T1, S. aureus topoisomerase IV (Staphylococcus aureus, UniProt P0C1S7+P0C1U9); assay: S. aureus topoisomerase IV decatenation assay; type: biochemical
# T1 construct: purchased Inspiralis
# Procedure: The assay was performed using S. aureus topoisomerase IV […] kit (Inspiralis). Kinetoplast DNA (kDNA) was the substrate for topoisomerase IV.
# [25] = molecular target: S. aureus DNA gyrase (Staphylococcus aureus, UniProt P0A0K8+P20831); assay: biochemical
# [26] = KR4358/2840/19, clinical S. epidermidis, quinolone-susceptible, 18 h of treatment
SMILES,MIC [1] [µg/mL],IC50 [3] [µM],"IC50 ([4]; Homo sapiens, SW-620, 72 h) [µM]",MIC [7] [µg/mL],MIC ([8]; 2 weeks of treatment) [µg/mL],MIC [9] [µg/mL],MIC [11] [µg/mL],MIC [12] [µg/mL],MIC [13] [µg/mL],MIC [15] [µg/mL],MIC [16] [µg/mL],MIC [17] [µg/mL],"IC50 ([18]; Homo sapiens, SW480, 72 h) [µM]",MIC [19] [µg/mL],MIC [20] [µg/mL],MIC [21] [µg/mL],MIC [10] [µg/mL],further results
"COc1c(N2C[C@@H]3CCCN[C@@H]3C2)c(F)cc2c(=O)c(C(=O)O)cn(C3CC3)c12 [MXF, moxifloxacin, reference compound]",0.06,121 ± 6.8,54.5 ± 3.8,0.1,0.125,0.1,2,< 0.03,4,0.1,< 0.03,0.1,58.4 ± 3.1,0.06,0.06,0.06,–,"MIC ([2]; ATCC12228, 18 h of treatment): 0.06 µg/mL; IC50 ([5]; Homo sapiens, PC-3, 72 h, human metastatic prostate cancer, 72 h, MTT, mean ± SD): 46.4 ± 3.2 µM; MIC [6, 26]: 0.1 µg/mL; MIC ([10]; 2 weeks of treatment): 0.25 µg/mL; MIC ([14]; ATCC27853, 18 h of treatment): > 512 µg/mL"
"CCCCCCCC/C=C\CCCCCCCC(=O)N1CCCC2CN(c3c(F)cc4c(=O)c(C(=O)O)cn(C5CC5)c4c3OC)CC21 (stereo not shown) [Compound 4m, 1-Cyclopropyl-6-fluoro-8-methoxy-7-{1-(Z)-octadec-9-enoyl-octahydro-pyrrolo[3,4-b]pyridin-6-yl}-4-oxo-1,4-dihydro-quinoline-3-carboxylic acid]",512,92.3 ± 6.1,3.4 ± 0.7,> 512,–,> 512,> 512,512,> 512,> 512,256,> 512,4.6 ± 1.4,256,128,128,> 512,"MIC ([2]; ATCC12228, 18 h): > 512 µg/mL; SI SW620 [4]: 27.1; SI PC3 [5]: 71.0; IC50 [22]: < 5 µM; MIC ([6]; KR4358/2840/19, 18 h): > 512 µg/mL; MIC [8]: > 512 µg/mL; MIC [23]: > 32 µg/mL; MIC ([14]; ATCC27853, 18 h of treatment): 128 µg/mL; SI SW480 [18]: 20.1"
"N.N.[Cl][Pt][Cl] [Cisplatin, reference compound]",–,–,–,–,–,–,–,–,–,–,–,–,–,–,–,–,–,IC50 [4]: 6.7 ± 1.1 µM; IC50 [18]: 10.4 ± 0.9 µM
CC(C)=CCCC(C)=CC(=O)N1CCN(c2cc3c(cc2F)c(=O)c(C(=O)O)cn3C2CC2)CC1 [Compound 3],–,–,–,–,–,–,–,–,–,–,–,–,–,–,–,–,–,IC50 [24]: > 133 µM; IC50 [25]: 107 µM
"NNC(=O)c1ccncc1 [Isoniazid (INH), Isoniazid, reference compound]",–,–,–,–,0.125,–,–,–,–,–,–,–,–,–,–,–,0.125,–
"CCCCCCCCCCCCCCCCCC(=O)N1CCCC2CN(c3c(F)cc4c(=O)c(C(=O)O)cn(C5CC5)c4c3OC)CC21 (stereo not shown) [Compound 16m, 1-Cyclopropyl-6-fluoro-8-methoxy-7-(1-octadecanoyl-octahydro-pyrrolo[3,4-b]pyridin-6-yl)-4-oxo-1,4-dihydro-quinoline-3-carboxylic acid]",64,81.5 ± 4.2,6.5 ± 1.2,64,–,512,256,128,512,128,64,512,< 5,64,64,64,> 512,"MIC ([2]; ATCC12228, 18 h of treatment): 64 µg/mL; SI SW620 [4]: 12.5; SI PC3 [5]: 34.0; MIC [6, 26]: 512 µg/mL; MIC [8]: > 512 µg/mL; MIC [23]: > 32 µg/mL; MIC ([14]; ATCC27853, 18 h): > 512 µg/mL; SI SW480 [18]: 30.2; IC50 [18]: 2.7 ± 0.7 µM"
"[H]/N=C(/N)N[C@H]1[C@H](O)[C@@H](O)[C@H](O[C@@H]2O[C@@H](C)[C@](O)(C=O)[C@H]2O[C@@H]2O[C@@H](CO)[C@H](O)[C@@H](O)[C@@H]2NC)[C@@H](N/C(N)=N\[H])[C@@H]1O [Streptomycin (SM), Streptomycin, reference compound]",–,–,–,–,1,–,–,–,–,–,–,–,–,–,–,–,–,MIC ([10]; 2 weeks of treatment): 1 µg/mL

# — article PMC9181188 (International Journal of Molecular Sciences, 2022)
